Patent US5051405A, “Anti-thrombotic peptides and pseudopeptides” (Rhone-Poulenc Rorer Pharmaceuticals Inc., priority 1989, dated 1991)
Where a SMILES comes first, the peptide text is derived from it. [ ]: non-standard residue; d: D form. Inp = O=C(O)C1CCNCC1

Key:
[1] = target: T1, fibrinogen binding to thrombin-stimulated platelets (GPIIb/IIIa fibrinogen receptor) (Homo sapiens, UniProt P05106+P08514); test: Inhibition of radiolabeled (125I) fibrinogen binding assay; conditions: thrombin-stimulated washed platelets; 125I-fibrinogen held at 0.176 μmol/liter (60 μg/ml); 22°-25° C.
T1 construct: endogenous in cells; host or cells: washed platelets, thrombin-stimulated
Method: I. Inhibition of Radiolabeled (^125 I) Fibrinogen Binding Assay, which is essentially based on the method described in Proc. Natl. Acad. Sci. U.S.A. Vol. 83, pp. 5708-5712, August 1986, and is as follows.
Platelets are washed free of plasma constituents by the albumin density-gradient technique. In each experimental mixture platelets in modified Tyrode's buffer are stimulated with human α-thrombin at 22°-25° C. for 10 minutes (3.125×10" platelets per liter and thrombin at […]). Hirudin is then added at a 25-fold excess for 5 minutes before addition of the radiolabeled ligand and any competing ligand. After these additions, the final platelet count in the mixture is 1×10"/liter. After incubation for an additional 30 minutes at 22°-25° C., bound and free ligand are separated by centrifuging 50 μl of the mixture through 300 μl of 20% sucrose at 12,000 xg for 4 minutes. The platelet pellet is then separated from the rest of the mixture to determine platelet-bound radioactivity. Nonspecific binding is measured in mixtures containing an excess of unlabeled ligand. When binding curves are analyzed by Scatchard analysis, nonspecific binding is derived as a fitted parameter from the binding isotherm by means of a computerized program. To determine the concentration of each inhibitory compound necessary to inhibit 50% of fibrinogen binding to thrombin-stimulated platelets (IC50), each compound is tested at 6 or more concentrations with ^125 I-labeled fibrinogen held at 0.176 μmol/liter (60 μg/ml). The IC50 is derived by plotting residual fibrinogen binding against the logarithm of the sample compound's concentration.

Human Platelets = Human Platelets (Homo sapiens, UniProt P05106+P08514); test: Inhibition of fibrinogen-mediated platelet aggregation; type: cell-based; conditions: compound at 100 μM; thrombin-activated human platelets, human fibrinogen added
Method: II. Inhibition of Fibrinogen - Mediated Platelet Aggregation, which is essentially based on the method described in Blood, Vol. 66, No. 4, Oct. 1985, pp. 946-952, and is as follows.
Human Platelets were isolated from freshly drawn whole blood and were suspended in 0.14 mol/L NaCl, 2.7 mmol/L […], 12 mmol/L NaHCO3, 0.42 mmol/L Na2 HPO4, 0.55 mmol/L glucose, and 5 mmol/L Hepes, pH 7.35 at 2×10^8 platelets/ml. The suspension was incubated at 37° C. An aliquot of 0.4 ml of platelet suspension was activated by human thrombin at a final concentration of 2 μg/ml of thrombin for one minute. After one minute the reaction was stopped by a thrombin inhibitor. Serial dilution of the compound being tested was then added to the activated platelet, the reaction was allowed to proceed for one minute, followed by the addition of human fibrinogen at a final concentration of […] of fibrinogen. Platelet aggregation was then recorded by an aggregometer. Rate of aggregation was used to calculate IC50.

Chain of Human Platelets (P08514 32-1039): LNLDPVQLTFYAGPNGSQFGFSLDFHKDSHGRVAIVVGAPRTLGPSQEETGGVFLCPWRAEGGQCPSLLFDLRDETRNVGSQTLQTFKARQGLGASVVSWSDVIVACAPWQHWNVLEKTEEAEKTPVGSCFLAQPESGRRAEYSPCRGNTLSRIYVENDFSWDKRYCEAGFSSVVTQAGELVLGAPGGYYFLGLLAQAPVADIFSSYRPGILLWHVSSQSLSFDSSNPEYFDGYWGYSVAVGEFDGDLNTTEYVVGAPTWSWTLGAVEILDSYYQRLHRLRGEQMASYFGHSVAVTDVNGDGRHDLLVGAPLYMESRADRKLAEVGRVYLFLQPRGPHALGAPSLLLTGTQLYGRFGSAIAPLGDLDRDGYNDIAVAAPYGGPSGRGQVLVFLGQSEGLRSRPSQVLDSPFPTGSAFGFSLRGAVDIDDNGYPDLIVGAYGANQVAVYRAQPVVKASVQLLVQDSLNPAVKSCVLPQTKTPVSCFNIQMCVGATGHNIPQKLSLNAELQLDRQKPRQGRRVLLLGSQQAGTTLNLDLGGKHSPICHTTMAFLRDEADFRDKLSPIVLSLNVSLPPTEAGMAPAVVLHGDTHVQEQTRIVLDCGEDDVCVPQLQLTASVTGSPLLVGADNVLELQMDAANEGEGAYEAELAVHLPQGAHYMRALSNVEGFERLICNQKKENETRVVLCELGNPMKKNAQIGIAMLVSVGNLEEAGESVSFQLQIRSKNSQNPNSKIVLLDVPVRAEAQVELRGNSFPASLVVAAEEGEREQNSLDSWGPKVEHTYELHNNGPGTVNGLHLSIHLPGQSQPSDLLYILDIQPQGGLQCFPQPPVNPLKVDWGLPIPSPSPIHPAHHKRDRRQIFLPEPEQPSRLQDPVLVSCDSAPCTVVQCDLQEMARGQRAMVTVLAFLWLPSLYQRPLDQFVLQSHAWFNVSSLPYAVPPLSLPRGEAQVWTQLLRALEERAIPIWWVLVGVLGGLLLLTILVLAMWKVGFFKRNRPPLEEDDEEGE
Chain of Human Platelets (P05106 27-788): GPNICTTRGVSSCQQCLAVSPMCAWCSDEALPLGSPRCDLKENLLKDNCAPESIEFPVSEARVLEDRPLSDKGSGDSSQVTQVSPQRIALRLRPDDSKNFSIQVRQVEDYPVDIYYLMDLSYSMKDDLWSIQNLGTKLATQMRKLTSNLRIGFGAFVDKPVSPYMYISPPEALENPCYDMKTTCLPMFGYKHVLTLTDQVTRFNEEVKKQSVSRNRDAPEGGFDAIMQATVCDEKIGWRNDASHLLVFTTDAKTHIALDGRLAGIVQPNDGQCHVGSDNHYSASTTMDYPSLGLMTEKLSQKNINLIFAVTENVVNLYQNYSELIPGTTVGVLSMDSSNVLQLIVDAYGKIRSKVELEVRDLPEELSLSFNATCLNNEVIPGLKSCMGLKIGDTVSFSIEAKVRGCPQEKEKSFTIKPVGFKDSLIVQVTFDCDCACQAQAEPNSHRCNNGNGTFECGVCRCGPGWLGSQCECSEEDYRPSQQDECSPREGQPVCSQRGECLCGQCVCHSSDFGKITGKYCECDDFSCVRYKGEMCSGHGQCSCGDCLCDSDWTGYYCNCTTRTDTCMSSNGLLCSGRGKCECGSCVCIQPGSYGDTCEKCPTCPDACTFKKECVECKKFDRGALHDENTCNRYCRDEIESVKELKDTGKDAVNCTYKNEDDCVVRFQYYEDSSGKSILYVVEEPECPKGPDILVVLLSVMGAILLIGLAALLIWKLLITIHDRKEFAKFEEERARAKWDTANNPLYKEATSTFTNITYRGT
T1 sequence (P08514 32-887 limits assumed): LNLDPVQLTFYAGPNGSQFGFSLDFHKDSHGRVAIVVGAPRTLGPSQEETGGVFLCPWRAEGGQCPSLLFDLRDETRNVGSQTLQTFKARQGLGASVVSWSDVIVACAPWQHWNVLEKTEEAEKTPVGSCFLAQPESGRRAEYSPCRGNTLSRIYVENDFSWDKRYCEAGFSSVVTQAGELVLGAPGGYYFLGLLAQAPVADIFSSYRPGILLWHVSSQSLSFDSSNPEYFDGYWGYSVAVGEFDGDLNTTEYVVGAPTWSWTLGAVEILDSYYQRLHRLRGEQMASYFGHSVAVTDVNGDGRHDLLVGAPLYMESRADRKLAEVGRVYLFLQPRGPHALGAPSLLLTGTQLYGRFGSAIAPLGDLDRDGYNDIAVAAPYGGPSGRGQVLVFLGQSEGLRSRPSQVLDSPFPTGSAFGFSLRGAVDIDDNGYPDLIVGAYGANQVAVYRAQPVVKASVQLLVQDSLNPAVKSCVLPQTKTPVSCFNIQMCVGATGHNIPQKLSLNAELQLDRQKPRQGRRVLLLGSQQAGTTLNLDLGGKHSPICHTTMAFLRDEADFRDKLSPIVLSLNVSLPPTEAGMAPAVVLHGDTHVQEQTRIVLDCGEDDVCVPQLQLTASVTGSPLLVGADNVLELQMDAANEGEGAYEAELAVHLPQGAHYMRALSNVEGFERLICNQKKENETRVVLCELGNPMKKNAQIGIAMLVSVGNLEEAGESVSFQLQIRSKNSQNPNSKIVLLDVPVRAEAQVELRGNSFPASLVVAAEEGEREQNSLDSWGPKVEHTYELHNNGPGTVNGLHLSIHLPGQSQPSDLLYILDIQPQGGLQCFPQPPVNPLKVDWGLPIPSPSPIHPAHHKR
T1 sequence (P08514 891-1039 limits assumed): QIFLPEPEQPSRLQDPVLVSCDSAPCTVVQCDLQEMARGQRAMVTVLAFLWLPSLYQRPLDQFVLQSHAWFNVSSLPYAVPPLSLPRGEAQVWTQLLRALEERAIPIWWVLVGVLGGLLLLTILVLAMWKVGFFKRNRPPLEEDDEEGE
T1 sequence (P05106 27-788): as the sequence (P05106 27-788) above

Structure (SMILES)	IC50 [1]	inhibition at 100 µM (Human Platelets)
CC(C)[C@H](NC(=O)[C@H](CC(=O)O)NC(=O)CNC(=O)C1CCNCC1)C(=O)O [Piperidine-4-carboxylglycyl-L-Aspartyl-L-Valine] (H-[Inp]GDV-OH)	10.5 µM	86%
CC(C)[C@H](NC(=O)[C@H](CC(=O)O)NC(=O)CNC(=O)C1CCCN(C(=N)N)C1)C(=O)O (stereo partly drawn) [N-amidinopiperidine-3-carboxylglycyl-L-aspartyl-L-valine]	10.5 µM	87%
CC(C)[C@H](NC(=O)[C@H](CC(=O)O)NC(=O)CNC(=O)C1CCCNC1)C(=O)O (stereo partly drawn) [Piperidine-3-Carboxylglycyl-L-Aspartyl-L-Valine]	> 64 µM	78%
CC(C)[C@H](NC(=O)[C@H](CC(=O)O)NC(=O)CNC(=O)C1CCN(C(=N)N)CC1)C(=O)O [1-Amidinopiperidine-4-Carboxylglycyl-L-Aspartyl-L-Valine]	1.8 µM	92%
